Assay results published in patent US20240246979A1, “cGAS INHIBITORS” (Eli Lilly and Company, priority 2022, published 2024).

What was measured:
cGAS [1] = biological target: T1, cGAS (Homo sapiens, UniProt Q8N884); experiment: In vitro inhibition assay of cGAS activity (cGAMP production, RapidFire mass spectrometry); type: biochemical; parameters: Insert cDNA encoding full-length of human cGAS; His6; made in house; host or cells: E. coli BL21(DE3); conditions: 10 nM recombinant human cGAS, 60 nM 75-bp dsDNA, 50 μM ATP, 50 μM GTP, 3 hrs
Outline: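 Reactions in 10 mM Tris-Cl pH 7.5, 5 mM MgCl2, 0.01% Triton X-100 contained serially diluted compound, 10 nM recombinant cGAS, dsDNA activator and 50 μM each of ATP and GTP, run 3 hrs at ambient temperature. After formic acid quench, cGAMP output was measured by mass spectrometry and percent inhibition versus log concentration was fitted for IC50.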

cGAS [2] = biological target: T1, cGAS; experiment: Cellular assay to measure cGAS activity (IFNb AlphaLISA in THP1 cells stimulated by RDG-Adenovirus-GFP); type: cell-based; parameters: host or cells: THP1 cells differentiated with PMA and stimulated with RDG-Adenovirus-GFP; conditions: PMA-differentiated THP1 cells, RDG-Adenovirus-GFP at 1000 MOI; inhibition of IFNb production as marker for cGAS activity
Outline: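 The readout is secreted IFNb measured by AlphaLISA after overnight compound exposure. THP1 cells, differentiated with PMA for 24 h and rested overnight, were infected with RDG-Adenovirus-GFP (1000 MOI, 4 h) before compounds were added; IC50 came from a 4-parameter logistic fit of inhibition against log concentration.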

T1 sequence (Q8N884 whole entry): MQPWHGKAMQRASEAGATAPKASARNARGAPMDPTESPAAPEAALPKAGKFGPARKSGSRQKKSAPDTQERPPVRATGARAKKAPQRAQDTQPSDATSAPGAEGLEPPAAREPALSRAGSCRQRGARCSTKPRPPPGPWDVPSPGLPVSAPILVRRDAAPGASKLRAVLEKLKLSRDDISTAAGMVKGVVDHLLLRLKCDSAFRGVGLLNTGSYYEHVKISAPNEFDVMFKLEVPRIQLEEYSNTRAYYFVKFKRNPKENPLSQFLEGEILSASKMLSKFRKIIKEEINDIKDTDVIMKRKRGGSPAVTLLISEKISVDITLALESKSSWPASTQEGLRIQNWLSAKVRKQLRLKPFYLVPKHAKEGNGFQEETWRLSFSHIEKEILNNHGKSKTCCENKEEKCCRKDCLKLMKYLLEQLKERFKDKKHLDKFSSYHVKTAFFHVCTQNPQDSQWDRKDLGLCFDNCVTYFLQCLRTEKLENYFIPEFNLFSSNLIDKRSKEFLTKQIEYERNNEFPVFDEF

| SMILES | IC50 (cGAS [1]) | IC50 (cGAS [2]) |
| --- | --- | --- |
| C[C@H]1C(=O)NCCc2[nH]c3c(Cl)c(Cl)cc(-c4cnn(C)n4)c3c21 (single isomer, unassigned) [Example 37] | 30.4 nM | 802 nM |
| Cn1ncc(-c2cc(Cl)c(Cl)c3[nH]c4c(c23)CC(=O)NC[C@H]4CC(C)(F)F)n1 (single isomer, unassigned) [Example 136] | 16 nM | 1570 nM |
| COCC[C@@H]1CNC(=O)Cc2c1[nH]c1c(Cl)c(Cl)cc(-c3cnn(C)n3)c21 (single isomer, unassigned) [Example 167] | 12.8 nM | 624 nM |
| N#CCc1cc(Cl)c(Cl)c2c1c1c3n2CCC3CNC(=O)C1 (stereo not drawn) [Example 114, 2-(8,9-Dichloro-2-oxo-2,3,4,4a, 5,6-hexahydro-1H-azepino[3,4,5-gh]benzo[b]pyrrolizin-11-yl)acetonitrile] | 38.4 nM | 1270 nM |
| CC[C@H]1C(=O)NCCc2[nH]c3c(Cl)c(Cl)cc(OCC#N)c3c21 (single isomer, unassigned) [Example 36] | 3950 nM | 1200 nM |
| Cn1ncc(-c2cc(Cl)c(Cl)c3[nH]c4c(c23)CC(=O)NC[C@H]4CC(C)(C)O)n1 (single isomer, unassigned) [Example 103] | 17.6 nM | 398 nM |
| COCC[C@H]1CNC(=O)[C@@H](C)c2c1[nH]c1c(Cl)c(Cl)cc(NCCO)c21 (single isomer, unassigned) [Example 173] | 14.7 nM | 1610 nM |
| CC(C)(O)C[C@@H]1CNC(=O)Cc2c1[nH]c1c(Cl)c(Cl)cc(OCC#N)c21 (single isomer, unassigned) [Example 108] | 25.7 nM | 676 nM |
| CC(O)CC1CNC(=O)Cc2c1[nH]c1c(Cl)c(Cl)cc(-c3cnn(C)n3)c21 (stereo not drawn) [Example 119, 7,8-Dichloro-5-(2-hydroxypropyl)-10-(2-methyl-2H-1,2,3-triazol-4-yl)-3,4,5,6-tetrahydroazepino[4,5-b]indol-2(1H)-one] | 23.2 nM | 487 nM |
| C[C@@H]1C(=O)NC[C@H](C)c2[nH]c3c(Cl)c(Cl)cc(CC#N)c3c21 (single isomer, unassigned) [Example 151] | 19.7 nM | 1770 nM |
| CC1Cc2[nH]c3c(Cl)c(Cl)cc(NCCO)c3c2CC(=O)N1 (stereo not drawn) [Example 165, 7,8-Dichloro-10-((2-hydroxyethyl)amino)-4-methyl-3,4,5,6-tetrahydroazepino[4,5-b]indol-2(1H)-one] | 44.2 nM | 1730 nM |
| Cn1ncc(-c2cc(Cl)c(F)c3[nH]c4c(c23)CC(=O)NCC4)n1 [Example 1, 8-Chloro-7-fluoro-10-(2-methyl-2H-1,2,3-triazol-4-yl)-3,4,5,6-tetrahydroazepino[4,5-b]indol-2(1H)-one] | 33.4 nM | 2640 nM |
| C[C@@H]1C(=O)NCCc2[nH]c3c(Cl)c(Cl)cc(N[C@H]4CCOC4)c3c21 (single isomer, unassigned) [Example 62] | 44.5 nM | 1900 nM |
| O=C1Cc2c([nH]c3c(Cl)c(Cl)cc(NCCCO)c23)CCN1 [Example 22, 7,8-Dichloro-10-((3-hydroxypropyl)amino)-3,4,5,6-tetrahydroazepino[4,5-b]indol-2(1H)-one] | 45.9 nM | 4580 nM |
| CC1C(=O)NCCc2c1c1c(OCC#N)cc(Cl)c(Cl)c1n2C (stereo not drawn) [Example 78, 2-((7,8-Dichloro-1,6-dimethyl-2-oxo-1,2,3,4,5,6-hexahydroazepino[4,5-b]indol-10-yl)oxy)acetonitrile] | 46.5 nM | 810 nM |
| N#CCc1cc(Cl)c(Cl)c2[nH]c3c(c12)CC(=O)NCC3CCO (stereo not drawn) [Example 113, 2-(7,8-Dichloro-5-(2-hydroxyethyl)-2-oxo-1,2,3,4,5,6-hexahydroazepino[4,5-b]indol-10-yl)acetonitrile] | 37.3 nM | 1740 nM |
| C[C@@H]1CNC(=O)Cc2c1[nH]c1c(Cl)c(Cl)cc(OCC#N)c21 (single isomer, unassigned) [Example 148] | 41.4 nM | 1390 nM |

Second part, the compound after the results:

| IC50 (cGAS [1]) | IC50 (cGAS [2]) | SMILES |
| --- | --- | --- |
| 53.3 nM | 2720 nM | CC1C(=O)NCC(C)(C)c2[nH]c3c(Cl)c(Cl)cc(NCCO)c3c21 (stereo not drawn) [Example 131, 7,8-Dichloro-10-((2-hydroxyethyl)amino)-1,5,5-trimethyl-3,4,5,6-tetrahydroazepino[4,5-b]indol-2(1H)-one] |
| 2760 nM | > 10000 nM | C[C@@H]1C(=O)NCCc2c1c1c(NC(=O)CO)cc(Cl)c(Cl)c1n2C (single isomer, unassigned) [Example 93] |
| 12.3 nM | 287 nM | C[C@H]1C(=O)NCCc2c1c1c(NC(=O)CO)cc(Cl)c(Cl)c1n2C(F)F (single isomer, unassigned) [Example 145, (R)—N-(7,8-Dichloro-6-(difluoromethyl)-1-methyl-2-oxo-1,2,3,4,5,6-hexahydroazepino[4,5-b]indol-10-yl)-2-hydroxyacetamide or (S)—N-(7,8-Dichloro-6-(difluoromethyl)-1-methyl-2-oxo-1,2,3,4,5,6-hexahydroazepino[4,5-b]indol-10-yl)-2-hydroxyacetamide] |
| 88.4 nM | 6910 nM | O=C1Cc2c([nH]c3c(Cl)c(Cl)cc(NC(=O)CO)c23)CCN1 [Example 24, N-(7,8-Dichloro-2-oxo-1,2,3,4,5,6-hexahydroazepino[4,5-b]indol-10-yl)-2-hydroxyacetamide] |
| 124 nM | 2730 nM | COc1cc(Cl)c(Cl)c2[nH]c3c(c12)C(C)C(=O)NCC3 (stereo not drawn) [Example 10, 7,8-Dichloro-10-methoxy-1-methyl-3,4,5,6-tetrahydroazepino[4,5-b]indol-2(1H)-one] |
| 1640 nM | > 10000 nM | C[C@@H](O)CNc1cc(Cl)c(Cl)c2c1c1c(n2C)CCNC(=O)[C@@H]1C (single isomer, unassigned) [Example 99] |
| 7580 nM | ≥ 10000 nM | C[C@H](O)C(=O)Nc1cc(Cl)c(Cl)c2c1c1c(n2C)CCNC(=O)[C@H]1C (single isomer, unassigned) [Example 95] |
| 51.9 nM | 3470 nM | CC1C(=O)NCCc2[nH]c3c(Cl)c(Cl)cc(OC4CCOC4)c3c21 (mixture of isomers) [Example 86, 7,8-Dichloro-1-methyl-10-((tetrahydrofuran-3-yl)oxy)-3,4,5,6-tetrahydroazepino[4,5-b]indol-2(1H)-one] |
| 39.5 nM | 1120 nM | CC1C(=O)NCCc2[nH]c3c(Cl)c(Cl)cc(CC#N)c3c21 (stereo not drawn) [Example 31, 2-(7,8-Dichloro-1-methyl-2-oxo-1,2,3,4,5,6-hexahydroazepino[4,5-b]indol-10-yl)acetonitrile] |
| 43 nM | 2320 nM | CC1C(=O)NCCc2[nH]c3c(Cl)c(Cl)cc(NCCC(F)F)c3c21 (stereo not drawn) [Example 71, 7,8-Dichloro-10-((3,3-difluoropropyl)amino)-1-methyl-3,4,5,6-tetrahydroazepino[4,5-b]indol-2(1H)-one] |
| 1510 nM | > 10000 nM | C[C@H](O)C(=O)Nc1cc(Cl)c(Cl)c2c1c1c(n2C(F)F)CCNC(=O)[C@H]1C (single isomer, unassigned) [Example 143] |
| 17.3 nM | 259 nM | C[C@@H]1C(=O)NCCc2c1c1c(NC(=O)CO)cc(Cl)c(Cl)c1n2C (single isomer, unassigned) [Example 92] |
| 6440 nM | > 10000 nM | C[C@H](O)C(=O)Nc1cc(Cl)c(Cl)c2[nH]c3c(c12)[C@@H](C)C(=O)NCC3 (single isomer, unassigned) [Example 42] |
